Test system: Crude diglycosidase
Assay: Examination of substrate concentration in the conversion into isoflavone aglycons by diglycosidase using soybean materials;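 note: percent of the isoflavone family total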
Type: biochemical, Penicillium multicolor IAM7153
Conditions: soymilk
Description: Into 20 mM acetate buffer of pH 4.0 was suspended 0.1 g, 0.25 g, 0.5 g, 1.0 g, or 1.5 g of each of various soybean materials (roasted soy flour (manufactured by Fuji Shokuryo K.K.), soymilk (manufactured by Gitoh Shokuhin K.K.), defatted soybean (manufactured by Fuji Seiyu K.K.), concentrated soybean protein (manufactured by Fuji Seiyu K.K.)). The pH of the suspension was measured and the liquid volume was adjusted to 4.5 mL while the pH was adjusted to 4.0 with 1N hydrochloric acid. An enzyme solution wherein diglycosidase activity of crude diglycosidase was adjusted to 1.88 AU/mL was added thereto in an amount of 0.5 mL, whereby the final liquid volume was 5.0 mL. Namely, the ratio of the soybean material in the reaction mixture was 2%, 5%, 10%, 20%, or 30% (w/v). The whole was reacted at 55° C. under shaking. To 5 mL of the reaction mixture was added 7 mL of ethanol after 0, 1, 3, and 6 hours of the reaction. After ultrasonication, the mixture was thoroughly mixed. It was subjected to centrifugal separation at 2,000 rpm and room temperature for 5 minutes. Then, […] of the supernatant was placed in a 1.5 mL microtube and was subjected to centrifugal separation at 15,000 rpm and 4° C. for 10 minutes. The supernatant was filtered through a filter and each sample was suitably diluted by a factor of 1 to 6 depending on the substrate concentration. Fifty μL of the diluted solution was analyzed by HLPC (Tables 27 to 38).

[1] = substrate concentration 2%, heat treatment of enzyme no, reaction time 0 h
[2] = substrate concentration 2%, heat treatment of enzyme no, reaction time 1 h
[3] = substrate concentration 2%, heat treatment of enzyme no, reaction time 3 h
[4] = substrate concentration 2%, heat treatment of enzyme no, reaction time 6 h
[5] = substrate concentration 2%, heat treatment of enzyme yes, reaction time 6 h
[6] = substrate concentration 5%, heat treatment of enzyme no, reaction time 0 h
[7] = substrate concentration 5%, heat treatment of enzyme no, reaction time 1 h
[8] = substrate concentration 5%, heat treatment of enzyme no, reaction time 3 h
[9] = substrate concentration 5%, heat treatment of enzyme no, reaction time 6 h
[10] = substrate concentration 5%, heat treatment of enzyme yes, reaction time 6 h
[11] = substrate concentration 10%, heat treatment of enzyme no, reaction time 0 h
[12] = substrate concentration 10%, heat treatment of enzyme no, reaction time 1 h
[13] = substrate concentration 10%, heat treatment of enzyme no, reaction time 3 h
[14] = substrate concentration 10%, heat treatment of enzyme no, reaction time 6 h
[15] = substrate concentration 10%, heat treatment of enzyme yes, reaction time 6 h
[16] = substrate concentration 20%, heat treatment of enzyme no, reaction time 0 h
[17] = substrate concentration 20%, heat treatment of enzyme no, reaction time 1 h
[18] = substrate concentration 20%, heat treatment of enzyme no, reaction time 3 h
[19] = substrate concentration 20%, heat treatment of enzyme no, reaction time 6 h
[20] = substrate concentration 20%, heat treatment of enzyme yes, reaction time 6 h
[21] = substrate concentration 30%, heat treatment of enzyme no, reaction time 0 h
[22] = substrate concentration 30%, heat treatment of enzyme no, reaction time 1 h
[23] = substrate concentration 30%, heat treatment of enzyme no, reaction time 3 h
[24] = substrate concentration 30%, heat treatment of enzyme no, reaction time 6 h
[25] = substrate concentration 30%, heat treatment of enzyme yes, reaction time 6 h

SMILES | Decomposition efficiency: ratio of each glycoside/aglycon within its isoflavone family [1] | Decomposition efficiency: ratio of each glycoside/aglycon within its isoflavone family [2] | Decomposition efficiency: ratio of each glycoside/aglycon within its isoflavone family [3] | Decomposition efficiency: ratio of each glycoside/aglycon within its isoflavone family [4] | Decomposition efficiency: ratio of each glycoside/aglycon within its isoflavone family [5] | Decomposition efficiency: ratio of each glycoside/aglycon within its isoflavone family [6] | Decomposition efficiency: ratio of each glycoside/aglycon within its isoflavone family [7] | Decomposition efficiency: ratio of each glycoside/aglycon within its isoflavone family [8] | Decomposition efficiency: ratio of each glycoside/aglycon within its isoflavone family [9] | Decomposition efficiency: ratio of each glycoside/aglycon within its isoflavone family [10] | Decomposition efficiency: ratio of each glycoside/aglycon within its isoflavone family [11] | Decomposition efficiency: ratio of each glycoside/aglycon within its isoflavone family [12] | Decomposition efficiency: ratio of each glycoside/aglycon within its isoflavone family [13] | Decomposition efficiency: ratio of each glycoside/aglycon within its isoflavone family [14] | Decomposition efficiency: ratio of each glycoside/aglycon within its isoflavone family [15] | Decomposition efficiency: ratio of each glycoside/aglycon within its isoflavone family [16] | Decomposition efficiency: ratio of each glycoside/aglycon within its isoflavone family [17] | Decomposition efficiency: ratio of each glycoside/aglycon within its isoflavone family [18] | Decomposition efficiency: ratio of each glycoside/aglycon within its isoflavone family [19] | Decomposition efficiency: ratio of each glycoside/aglycon within its isoflavone family [20] | also measured
COc1cc2c(=O)c(-c3ccc(O)cc3)coc2cc1O[C@@H]1O[C@H](COC(C)=O)[C@@H](O)[C@H](O)[C@H]1O [acetyl-glycitin] | not detected | not detected | not detected | not detected | not detected | not detected | not detected | not detected | not detected | not detected | not detected | not detected | not detected | not detected | not detected | not detected | not detected | not detected | not detected | not detected | Decomposition efficiency: ratio of each glycoside/aglycon within its isoflavone family [21]: not detected; Decomposition efficiency: ratio of each glycoside/aglycon within its isoflavone family [22]: not detected; Decomposition efficiency: ratio of each glycoside/aglycon within its isoflavone family [23]: not detected; Decomposition efficiency: ratio of each glycoside/aglycon within its isoflavone family [24]: not detected; Decomposition efficiency: ratio of each glycoside/aglycon within its isoflavone family [25]: not detected
CC(=O)OC[C@H]1O[C@@H](Oc2cc(O)c3c(=O)c(-c4ccc(O)cc4)coc3c2)[C@H](O)[C@@H](O)[C@@H]1O [acetyl-genistin] | not detected | not detected | not detected | not detected | not detected | not detected | not detected | not detected | not detected | not detected | 0.5% | not detected | not detected | not detected | 0.5% | 0.6% | not detected | not detected | not detected | 0.6% | Decomposition efficiency: ratio of each glycoside/aglycon within its isoflavone family [21]: 0.6%; Decomposition efficiency: ratio of each glycoside/aglycon within its isoflavone family [22]: not detected; Decomposition efficiency: ratio of each glycoside/aglycon within its isoflavone family [23]: not detected; Decomposition efficiency: ratio of each glycoside/aglycon within its isoflavone family [24]: not detected; Decomposition efficiency: ratio of each glycoside/aglycon within its isoflavone family [25]: 0.6%
CC(=O)OC[C@H]1O[C@@H](Oc2ccc3c(=O)c(-c4ccc(O)cc4)coc3c2)[C@H](O)[C@@H](O)[C@@H]1O [acetyl-daidzin] | not detected | not detected | not detected | not detected | not detected | not detected | not detected | not detected | not detected | not detected | not detected | not detected | not detected | not detected | not detected | not detected | not detected | not detected | not detected | not detected | Decomposition efficiency: ratio of each glycoside/aglycon within its isoflavone family [21]: not detected; Decomposition efficiency: ratio of each glycoside/aglycon within its isoflavone family [22]: not detected; Decomposition efficiency: ratio of each glycoside/aglycon within its isoflavone family [23]: not detected; Decomposition efficiency: ratio of each glycoside/aglycon within its isoflavone family [24]: not detected; Decomposition efficiency: ratio of each glycoside/aglycon within its isoflavone family [25]: not detected

From patent publication US7118895B2, “Process for producing aglycon by using diglycosidase and flavor-improved food containing the aglycon and converting agent to be used in the process” (Amano Enzyme Inc., priority 2000, dated 2006)
